{"source": "BindingDB's records for doi:10.1021/acsmedchemlett.6b00381", "about": "(Mossakowski Medical Research Centre Polish Academy of …, 2017)", "biological_target": "Substance-P receptor (Rattus norvegicus, UniProt P14600)", "sequence (P14600 whole entry)": "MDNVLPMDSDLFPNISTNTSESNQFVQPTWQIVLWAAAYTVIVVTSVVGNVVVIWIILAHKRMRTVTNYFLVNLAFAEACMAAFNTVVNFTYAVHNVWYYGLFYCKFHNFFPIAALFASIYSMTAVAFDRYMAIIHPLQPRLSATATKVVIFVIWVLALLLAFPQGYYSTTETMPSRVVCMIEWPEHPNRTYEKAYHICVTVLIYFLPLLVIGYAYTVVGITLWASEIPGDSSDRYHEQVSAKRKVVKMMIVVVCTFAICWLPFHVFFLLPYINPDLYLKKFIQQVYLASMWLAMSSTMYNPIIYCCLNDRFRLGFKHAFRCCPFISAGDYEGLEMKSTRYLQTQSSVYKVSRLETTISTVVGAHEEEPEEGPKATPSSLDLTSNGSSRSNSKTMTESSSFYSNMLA", "experiment": "ChEBML_1632341", "experimental": "Displacement of [Leu-3,4,5-3H(N)]-Substance P from NK1 receptor in rat brain homogenate measured after 60 mins by microbeta scintillation counting analysis", "data": [{"smiles": "C[C@@H](NC(=O)[C@@H](N)Cc1ccc(O)cc1)C(=O)NCC(=O)N[C@@H](Cc1ccccc1)C(=O)NN=Cc1cc(C(F)(F)F)cc(C(F)(F)F)c1", "values": [{"measurement": "IC50", "result": 4.2, "unit": "nM"}]}]}
